Molecular target: T1, farnesoid X receptor (FXR) (Homo sapiens, UniProt Q96RI1)
T1 sequence (Q96RI1 1-486): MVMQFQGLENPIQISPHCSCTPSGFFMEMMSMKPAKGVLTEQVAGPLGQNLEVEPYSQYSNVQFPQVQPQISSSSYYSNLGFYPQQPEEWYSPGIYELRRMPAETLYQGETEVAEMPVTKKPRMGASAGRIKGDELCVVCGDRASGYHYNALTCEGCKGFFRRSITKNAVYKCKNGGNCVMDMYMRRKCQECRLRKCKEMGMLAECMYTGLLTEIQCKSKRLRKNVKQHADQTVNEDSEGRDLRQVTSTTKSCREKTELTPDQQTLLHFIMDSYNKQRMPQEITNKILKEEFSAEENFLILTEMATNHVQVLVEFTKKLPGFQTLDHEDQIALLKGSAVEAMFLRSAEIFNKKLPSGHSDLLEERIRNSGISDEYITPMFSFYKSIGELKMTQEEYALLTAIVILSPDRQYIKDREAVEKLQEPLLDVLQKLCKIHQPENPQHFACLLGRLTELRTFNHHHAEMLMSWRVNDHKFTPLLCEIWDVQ
T1 sequence (P19793 1-462 partner): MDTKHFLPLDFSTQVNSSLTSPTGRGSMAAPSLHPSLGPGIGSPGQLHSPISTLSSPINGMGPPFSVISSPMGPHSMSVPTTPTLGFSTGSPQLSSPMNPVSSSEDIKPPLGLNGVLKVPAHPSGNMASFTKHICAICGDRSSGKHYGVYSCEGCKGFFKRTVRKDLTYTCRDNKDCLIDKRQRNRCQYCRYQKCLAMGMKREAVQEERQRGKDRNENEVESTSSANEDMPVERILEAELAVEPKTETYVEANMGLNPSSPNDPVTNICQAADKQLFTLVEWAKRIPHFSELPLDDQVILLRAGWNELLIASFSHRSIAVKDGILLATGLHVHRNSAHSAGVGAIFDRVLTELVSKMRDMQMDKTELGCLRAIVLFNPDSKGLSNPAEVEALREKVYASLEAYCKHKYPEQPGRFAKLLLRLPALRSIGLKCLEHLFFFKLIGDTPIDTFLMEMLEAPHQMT
Assay: Receptor transactivation assay, FXR (CV-1 cells, FXR and RXRα vectors)
Type: cell-based
Settings: at physiological concentrations
Source text: For RXR: CV-1 cells were transfected with rCRBPII/RXRE-tk-Luc reporter gene and an expression vector for RXRα, β, or γ. For RAR: CV-1 cells were transfected with ERE-tk-Luc reporter gene and an expression vector for the appropriate ER-RARα, β, or γ. ER-RARs are fusion proteins, composed of the estrogen receptor (ER) DNA binding domain fused to the ligand binding domain of RARs. This system eliminates interference by the low level of endogenous RAR activity in CV1 cells as the readout comes only from the transfected ER-RAR. For PPARγ: CV-1 cells were transfected with 3x(rAOX/DR1)-tk-Luc reporter gene and an expression vector for PPARγ; for FXR: CV-1 cells were transfected with 3x(IBABP/IR1)-tk-Luc reporter gene and vectors for FXR and RXRα; for LXR: CV-1 cells were transfected with 3x(PLTP/LXRE)-tk-Luc reporter gene with vectors for LXRα or LXRβ. For Nurr1: COS7 cells were transfected with 3xNBRE-tk-luc reporter gene and full length Nurr1 with or without full-length RXRα plasmid. […] Luciferase data were normalized to co-transfected β-gal activity. Luciferase activity is expressed as percent of maximal activity obtained using specific agonists 9-cis-retinoic acid (RXR), retinoic acid (RAR), rosiglitazone (PPARγ), GW4064 (FXR), T0901317 (LXR).

activation of RXR heterodimer of FXR: does not activate
Compound: CC(/C=C/[C@@H]1C[C@]1(C)c1ccc2c(c1)C(C)(C)CCC2(C)C)=C\C(=O)O [IRX4204]
